Assay results reported in patent publication US20190224166A1, “Compositions and Methods for Treating Muscle Loss” (Augusta University Research Institute, Inc., priority 2018, published 2019).

System: quadriceps muscle
Experiment: Proteomic analysis of quadriceps muscle of aged mice treated with 1-methyl-D-tryptophan (Table 1, TOPPGENE enrichment)
Type: in vivo
Description: Female mice 22 months of age were obtained from the National Institute on Aging and treated with saline (vehicle) or 1-methyl-D-tryptophan (1-MT, Sigma, 452483, lot#MKBZ1441V) at a low dose (10 mg/kg BW) or at a high dose (100 mg/kg BW). Mice were treated daily for 4 weeks. Treatments were administered i.p. with an injection volume of 0.2 ml following IACUC approved procedures. Mice were euthanized by CO2 overdose and muscles harvested for analysis. One quadriceps muscle was snap frozen for proteomics and the other quadriceps muscle fixed in buffered formalin for paraffin embedding and trichrome staining. The tibialis anterior was placed in PBS for amplex red assay.
The IDO inhibitor, 1-methyl-D-tryptophan, blocks kynurenine production and reduces levels of ROS in muscle.

SMILES: Cn1cc(C[C@@H](N)C(=O)O)c2ccccc21 [1MT]
- 1MT vs Control: E3 ubiquitin-protein ligase UBR4 (A2AN08, GN = Ubr4): 0.5
- 1MT vs Control: Ryanodine receptor 1 (E9PZQ0, GN = Ryr1): 0.6614
- 1MT vs Control: Hexokinase-2 (O08528, GN = Hk2): 0.3158
- 1MT vs Control: Peroxiredoxin-6 (O08709, GN = Prdx6): 0.7083
- 1MT vs Control: Dihydrolipoyl dehydrogenase, mitochondrial (O08749, GN = Dld): 0.8444
- 1MT vs Control: Proteasome subunit beta type-1 (O09061, GN = Psmb1): 0.5556
- 1MT vs Control: Calsequestrin-1 (O09165, GN = Casq1): 0.9036
- 1MT vs Control: Branched-chain-amino-acid aminotransferase, mitochondrial (O35855, GN = Bcat2): 0.5
- 1MT vs Control: Polymerase I and transcript release factor (O54724, GN = Ptrf): 0.9
- 1MT vs Control: Protein NipSnap homolog 2 (O55126, GN = Gbas): 0.5294
- 1MT vs Control: Phosphoglycerate mutase 2 (O70250, GN = Pgam2): 0.8457
- 1MT vs Control: Voltage-dependent calcium channel gamma-1 subunit (O70578, GN = Cacng1): 0.75
- 1MT vs Control: Reticulon-2 (O70622, GN = Rtn2): 0.3
- 1MT vs Control: Alpha-actinin-3 (O88990, GN = Actn3): 0.8638
- 1MT vs Control: Complement C3 (P01027, GN = C3): 0.5294
- 1MT vs Control: Hemoglobin subunit alpha (P01942, GN = Hba): 0.5714
- 1MT vs Control: Hemoglobin subunit beta-1 (P02088, GN = Hbb-b1): 0.688
- 1MT vs Control: Myoglobin (P04247, GN = Mb): 0.381
- 1MT vs Control: Aspartate aminotransferase, cytoplasmic (P05201, GN = Got1): 0.8115
- 1MT vs Control: Aspartate aminotransferase, mitochondrial (P05202, GN = Got2): 0.6944
- 1MT vs Control: Myosin light chain 1/3, skeletal muscle isoform (P05977, GN = Myl1): 0.7007
- 1MT vs Control: Glucose-6-phosphate isomerase (P06745, GN = Gpi): 0.8424
- 1MT vs Control: Serum albumin (P07724, GN = Alb): 0.8778
- 1MT vs Control: Serine protease inhibitor A3K (P07759, GN = Serpina3k): 0.5238
- 1MT vs Control: Malate dehydrogenase, mitochondrial (P08249, GN = Mdh2): 0.915
- 1MT vs Control: Superoxide dismutase [Mn], mitochondrial (P09671, GN = Sod2): 0.45
- 1MT vs Control: Eukaryotic initiation factor 4A-II (P10630, GN = Eif4a2): 0.6
- 1MT vs Control: Thioredoxin (P10639, GN = Txn): 0.6154
- 1MT vs Control: Fatty acid-binding protein, heart (P11404, GN = Fabp3): 0.6667
- 1MT vs Control: Calcium/calmodulin-dependent protein kinase type II subunit alpha (P11798, GN = Camk2a): 0.4444
- 1MT vs Control: cAMP-dependent protein kinase type II-alpha regulatory subunit (P12367, GN = Prkar2a): 0.8333
- 1MT vs Control: Malate dehydrogenase, cytoplasmic (P14152, GN = Mdh1): 0.7895
- 1MT vs Control: Heat shock protein beta-1 (P14602, GN = Hspb1): 0.5385
- 1MT vs Control: Annexin A6 (P14824, GN = Anxa6): 0.7045
- 1MT vs Control: Selenium-binding protein 1 (P17563, GN = Selenbp1): 0.625
- 1MT vs Control: Cathepsin D (P18242, GN = Ctsd): 0.8
- 1MT vs Control: Glutathione S-transferase P 1 (P19157, GN = Gstp1): 0.7436
- 1MT vs Control: Thioredoxin-dependent peroxide reductase, mitochondrial (P20108, GN = Prdx3): 0.6875
- 1MT vs Control: Leukotriene A-4 hydrolase (P24527, GN = Lta4h): 0.6667
- 1MT vs Control: Retinal dehydrogenase 1 (P24549, GN = Aldh1a1): 0.375
- 1MT vs Control: Glutamate dehydrogenase 1, mitochondrial (P26443, GN = Glud1): 0.75
- 1MT vs Control: 26S proteasome non-ATPase regulatory subunit 7 (P26516, GN = Psmd7): 0.8333
- 1MT vs Control: Adenylosuccinate synthetase isozyme 1 (P28650, GN = Adssl1): 0.8583
- 1MT vs Control: Parvalbumin alpha (P32848, GN = Pvalb): 0.7209
- 1MT vs Control: Pyruvate dehydrogenase E1 component subunit alpha, somatic form, mitochondrial (P35486, GN = Pdha1): 0.5714
- 1MT vs Control: Peroxiredoxin-1 (P35700, GN = Prdx1): 0.9138
- 1MT vs Control: Stress-70 protein, mitochondrial (P38647, GN = Hspa9): 0.4
- 1MT vs Control: Enoyl-CoA delta isomerase 1, mitochondrial (P42125, GN = Eci1): 0.3333
- 1MT vs Control: Medium-chain specific acyl-CoA dehydrogenase, mitochondrial (P45952, GN = Acadm): 0.75
- 1MT vs Control: Carnitine O-acetyltransferase (P47934, GN = Crat): 0.3913
- 1MT vs Control: ADP/ATP translocase 1 (P48962, GN = Slc25a4): 0.4561
- 1MT vs Control: Long-chain specific acyl-CoA dehydrogenase, mitochondrial (P51174, GN = Acadl): 0.3269
- 1MT vs Control: Isocitrate dehydrogenase [NADP], mitochondrial (P54071, GN = Idh2): 0.3684
- 1MT vs Control: Adenylosuccinate lyase (P54822, GN = Adsl): 0.5172
- 1MT vs Control: Adenosine kinase (P55264, GN = Adk): 0.4545
- 1MT vs Control: ATP synthase subunit beta, mitochondrial (P56480, GN = Atp5b): 0.6321
- 1MT vs Control: Elongation factor 1-delta (P57776, GN = Eef1d): 0.8
- 1MT vs Control: 14-3-3 protein gamma (P61982, GN = Ywhag): 0.5417
- 1MT vs Control: Serine/threonine-protein phosphatase PP1-beta catalytic subunit (P62141, GN = Ppp1cb): 0.2857
- 1MT vs Control: Cytochrome c, somatic (P62897, GN = Cycs): 0.7778
- 1MT vs Control: Nuclease-sensitive element-binding protein 1 (P62960, GN = Ybx1): 0.6
- 1MT vs Control: Profilin-1 (P62962, GN = Pfn1): 0.8333
- 1MT vs Control: 60 kDa heat shock protein, mitochondrial (P63038, GN = Hspd1): 0.2222
- 1MT vs Control: Eukaryotic translation initiation factor 5A-1 (P63242, GN = Eif5a): 0.8936
- 1MT vs Control: Guanine nucleotide-binding protein subunit beta-2-like 1 (P68040, GN = Gnb2l1): 0.8889
- 1MT vs Control: Histidine triad nucleotide-binding protein 1 (P70349, GN = Hint1): 0.8667
- 1MT vs Control: Isocitrate dehydrogenase [NAD] subunit gamma 1, mitochondrial (P70404, GN = Idh3g): 0.4286
- 1MT vs Control: Fructose-1,6-bisphosphatase isozyme 2 (P70695, GN = Fbp2): 0.6078
- 1MT vs Control: Spermine synthase (P97355, GN = Sms): 0.5455
- 1MT vs Control: Histone-lysine N-methyltransferase Smyd1 (P97443, GN = Smyd1): 0.8143
- 1MT vs Control: Myosin regulatory light chain 2, skeletal muscle isoform (P97457, GN = Mylpf): 0.6453
- 1MT vs Control: Fumarate hydratase, mitochondrial (P97807, GN = Fh): 0.7414
- 1MT vs Control: Acyl-protein thioesterase 1 (P97823, GN = Lypla1): 0.5
- 1MT vs Control: 60S acidic ribosomal protein P2 (P99027, GN = Rplp2): 0.7143
- 1MT vs Control: Tripartite motif-containing protein 72 (Q1XH17, GN = Trim72): 0.9048
- 1MT vs Control: Secernin-3 (Q3TMH2, GN = Scrn3): 0.6667
- 1MT vs Control: Trimeric intracellular cation channel type A (Q3TMP8, GN = Tmem38a): 0.6923
- 1MT vs Control: AMP deaminase 1 (Q3V1D3, GN = Ampd1): 0.86
- 1MT vs Control: UDP-glucose: glycoprotein glucosyltransferase 1 (Q6P5E4, GN = Uggt1): 0.2857
- 1MT vs Control: Creatine kinase S-type, mitochondrial (Q6P8J7, GN = Ckmt2): 0.3977
- 1MT vs Control: Sodium/potassium-transporting ATPase subunit alpha-2 (Q6PIE5, GN = Atp1a2): 0.5143
- 1MT vs Control: Calcium-binding mitochondrial carrier protein Aralar1 (Q8BH59, GN = Slc25a12): 0.3939
- 1MT vs Control: EH domain-containing protein 2 (Q8BH64, GN = Ehd2): 0.5714
- 1MT vs Control: Dihydrolipoyllysine-residue acetyltransferase component of pyruvate dehydrogenase complex, mitochondrial (Q8BMF4, GN = Dlat): 0.6053
- 1MT vs Control: Trifunctional enzyme subunit alpha, mitochondrial (Q8BMS1, GN = Hadha): 0.561
- 1MT vs Control: Isoleucine--tRNA ligase, cytoplasmic (Q8BU30, GN = Iars): 0.75
- 1MT vs Control: Fructose-2,6-bisphosphatase TIGAR (Q8BZA9, GN = Tigar): 0.6944
- 1MT vs Control: PDZ and LIM domain protein 5 (Q8CI51, GN = Pdlim5): 0.6667
- 1MT vs Control: Succinate dehydrogenase [ubiquinone] flavoprotein subunit, mitochondrial (Q8K2B3, GN = Sdha): 0.7037
- 1MT vs Control: 5-oxoprolinase (Q8K010, GN = Oplah): 0.75
- 1MT vs Control: Acetyl-CoA acetyltransferase, mitochondrial (Q8QZT1, GN = Acat1): 0.9231
- 1MT vs Control: Sarcoplasmic/endoplasmic reticulum calcium ATPase 1 (Q8R429, GN = Atp2a1): 0.9045
- 1MT vs Control: Carboxylesterase 1D (Q8VCT4, GN = Ces1d): 0.8571
- 1MT vs Control: Phosphate carrier protein, mitochondrial (Q8VEM8, GN = Slc25a3): 0.3333
- 1MT vs Control: G-protein coupled receptor 98 (Q8VHN7, GN = Gpr98): 0.6667
- 1MT vs Control: 2,4-dienoyl-CoA reductase, mitochondrial (Q9CQ62, GN = Decr1): 0.375
- 1MT vs Control: Bifunctional purine biosynthesis protein PURH (Q9CWJ9, GN = Atic): 0.8571
- 1MT vs Control: Cytochrome b-c1 complex subunit 1, mitochondrial (Q9CZ13, GN = Uqcrc1): 0.25
- 1MT vs Control: Citrate synthase, mitochondrial (Q9CZU6, GN = Cs): 0.5333
- 1MT vs Control: Succinyl-CoA: 3-ketoacid coenzyme A transferase 1, mitochondrial (Q9D0K2, GN = Oxct1): 0.75
- 1MT vs Control: Cytosolic non-specific dipeptidase (Q9D1A2, GN = Cndp2): 0.8
- 1MT vs Control: Protein-cysteine N-palmitoyltransferase HHAT-like protein (Q9D1G3, GN = Hhatl): 0.4545
- 1MT vs Control: Dihydrolipoyllysine-residue succinyltransferase component of 2-oxoglutarate dehydrogenase complex, mitochondrial (Q9D2G2, GN = Dlst): 0.4857
- 1MT vs Control: Ribose-phosphate pyrophosphokinase 1 (Q9D7G0, GN = Prps1): 0.8723
- 1MT vs Control: 60S ribosomal protein L4 (Q9D8E6, GN = Rpl4): 0.6667
- 1MT vs Control: Pyruvate dehydrogenase E1 component subunit beta, mitochondrial (Q9D051, GN = Pdhb): 0.6279
- 1MT vs Control: 14 kDa phosphohistidine phosphatase (Q9DAK9, GN = Phpt1): 0.75
- 1MT vs Control: Cytochrome b-c1 complex subunit 2, mitochondrial (Q9DB77, GN = Uqcrc2): 0.3958
- 1MT vs Control: Trans-1,2-dihydrobenzene-1,2-diol dehydrogenase (Q9DBB8, GN = Dhdh): 0.8333
- 1MT vs Control: Electron transfer flavoprotein subunit beta (Q9DCW4, GN = Etfb): 0.5
- 1MT vs Control: Methylmalonate-semialdehyde dehydrogenase [acylating], mitochondrial (Q9EQ20, GN = Aldh6a1): 0.65
- 1MT vs Control: Ubiquitin carboxyl-terminal hydrolase 14 (Q9JMA1, GN = Usp14): 0.8
- 1MT vs Control: Prolyl endopeptidase (Q9QUR6, GN = Prep): 0.5
- 1MT vs Control: Plectin (Q9QXS1, GN = Plec): 0.4894
- 1MT vs Control: Vesicle-associated membrane protein-associated protein B (Q9QY76, GN = Vapb): 0.5333
- 1MT vs Control: S-formylglutathione hydrolase (Q9R0P3, GN = Esd): 0.8929
- 1MT vs Control: Proteasome subunit alpha type-1 (Q9R1P4, GN = Psma1): 0.375
- 1MT vs Control: Glycogen phosphorylase, muscle form (Q9WUB3, GN = Pygm): 0.9185
- 1MT vs Control: Glycogen [starch] synthase, muscle (Q9Z1E4, GN = Gys1): 0.6275
- 1MT vs Control: Succinyl-CoA ligase [ADP-forming] subunit beta, mitochondrial (Q9Z2I9, GN = Sucla2): 0.52
- 1MT vs Control: Nucleosome assembly protein 1-like 4 (Q78ZA7, GN = Nap1l4): 0.8571
- 1MT vs Control: Hemopexin (Q91X72, GN = Hpx): 0.7391
- 1MT vs Control: NADH dehydrogenase [ubiquinone] flavoprotein 1, mitochondrial (Q91YT0, GN = Ndufv1): 0.4
